Experimental data reported in PubChem BioAssay (NCI).
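Following 48 hours of exposure in 96-well plates, responses at five concentrations were used to interpolate endpoints linearly. At the GI50, growth is halved. TGI: concentration producing complete growth inhibition.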

Tests used:
Assay in all cases: NCI anticancer screen, dose series, 48 h
UACC-257 melanoma = system: UACC-257 melanoma
SR leukemia = system: SR leukemia
RXF 393 renal = system: RXF 393 renal
NCI-H23 lung = system: NCI-H23 lung
OVCAR-8 ovarian = system: OVCAR-8 ovarian
HS 578T breast = system: HS 578T breast
SNB-19 CNS = system: SNB-19 CNS
HL-60(TB) leukemia = system: HL-60(TB) leukemia
COLO 205 colon = system: COLO 205 colon
BT-549 breast = system: BT-549 breast
SF-539 CNS = system: SF-539 CNS
MDA-MB-231 breast = system: MDA-MB-231 breast
DU-145 prostate = system: DU-145 prostate
SK-MEL-28 melanoma = system: SK-MEL-28 melanoma
TK-10 renal = system: TK-10 renal
MOLT-4 leukemia = system: MOLT-4 leukemia
M14 melanoma = system: M14 melanoma
786-0 renal = system: 786-0 renal
MALME-3M melanoma = system: MALME-3M melanoma
CAKI-1 renal = system: CAKI-1 renal
SW-620 colon = system: SW-620 colon
UO-31 renal = system: UO-31 renal
OVCAR-3 ovarian = system: OVCAR-3 ovarian
SF-295 CNS = system: SF-295 CNS
HOP-62 NSCLC = system: HOP-62 NSCLC
SNB-75 CNS = system: SNB-75 CNS
NCI-H522 lung = system: NCI-H522 lung
HCT-15 colon = system: HCT-15 colon
CCRF-CEM leukemia = system: CCRF-CEM leukemia
RPMI-8226 leukemia = system: RPMI-8226 leukemia
SK-MEL-2 melanoma = system: SK-MEL-2 melanoma
HCC-2998 colon = system: HCC-2998 colon
IGROV1 ovarian = system: IGROV1 ovarian
UACC-62 melanoma = system: UACC-62 melanoma
NCI/ADR-RES ovarian = system: NCI/ADR-RES ovarian
ACHN renal = system: ACHN renal
K-562 leukemia = system: K-562 leukemia
OVCAR-5 ovarian = system: OVCAR-5 ovarian
SN12C renal = system: SN12C renal
SK-MEL-5 melanoma = system: SK-MEL-5 melanoma
MDA-MB-435 = system: MDA-MB-435
EKVX NSCLC = system: EKVX NSCLC
OVCAR-4 ovarian = system: OVCAR-4 ovarian
HOP-92 NSCLC = system: HOP-92 NSCLC
NCI-H460 lung = system: NCI-H460 lung
U251 CNS = system: U251 CNS
SK-OV-3 ovarian = system: SK-OV-3 ovarian
HCT-116 colon = system: HCT-116 colon
A498 renal = system: A498 renal
PC-3 prostate = system: PC-3 prostate
HT29 colon = system: HT29 colon
LOX IMVI melanoma = system: LOX IMVI melanoma
NCI-H226 lung = system: NCI-H226 lung
KM12 colon = system: KM12 colon
A549 NSCLC = system: A549 NSCLC
SF-268 CNS = system: SF-268 CNS
T-47D breast = system: T-47D breast

COc1cccc2c1C(=O)c1c(O)c3c(c(O)c1C2=O)C[C@](O)(C(=O)CO)C[C@H]3O[C@@H]1C[C@@H](NC(=O)CCCN(C)C2(c3ccc(F)cc3)CC3CCC2C3)[C@H](O)[C@@H](C)O1 (stereo partly specified)
GI50 (UACC-257 melanoma): 984 nM
TGI (UACC-257 melanoma): 1730 nM
GI50 (SR leukemia): 311 nM
TGI (SR leukemia): 1520 nM
GI50 (RXF 393 renal): 696 nM
TGI (RXF 393 renal): 1410 nM
GI50 (NCI-H23 lung): 829 nM
TGI (NCI-H23 lung): 1710 nM
GI50 (OVCAR-8 ovarian): 913 nM
TGI (OVCAR-8 ovarian): 2360 nM
GI50 (HS 578T breast): 6780 nM
TGI (HS 578T breast): 20900 nM
GI50 (SNB-19 CNS): 900 nM
TGI (SNB-19 CNS): 2190 nM
GI50 (HL-60(TB) leukemia): 1170 nM
TGI (HL-60(TB) leukemia): 3010 nM
GI50 (COLO 205 colon): 712 nM
TGI (COLO 205 colon): 1440 nM
GI50 (BT-549 breast): 5070 nM
TGI (BT-549 breast): 13700 nM
GI50 (SF-539 CNS): 846 nM
TGI (SF-539 CNS): 1560 nM
GI50 (MDA-MB-231 breast): 771 nM
TGI (MDA-MB-231 breast): 1540 nM
GI50 (DU-145 prostate): 893 nM
TGI (DU-145 prostate): 1890 nM
GI50 (SK-MEL-28 melanoma): 946 nM
TGI (SK-MEL-28 melanoma): 1720 nM
GI50 (TK-10 renal): 780 nM
TGI (TK-10 renal): 1640 nM
GI50 (MOLT-4 leukemia): 382 nM
TGI (MOLT-4 leukemia): 1900 nM
GI50 (M14 melanoma): 925 nM
TGI (M14 melanoma): 1730 nM
GI50 (786-0 renal): 801 nM
TGI (786-0 renal): 1570 nM
GI50 (MALME-3M melanoma): 914 nM
TGI (MALME-3M melanoma): 1760 nM
GI50 (CAKI-1 renal): 7160 nM
TGI (CAKI-1 renal): 14500 nM
GI50 (SW-620 colon): 641 nM
TGI (SW-620 colon): 1490 nM
GI50 (UO-31 renal): 6230 nM
TGI (UO-31 renal): 14500 nM
GI50 (OVCAR-3 ovarian): 852 nM
TGI (OVCAR-3 ovarian): 1710 nM
GI50 (SF-295 CNS): 805 nM
TGI (SF-295 CNS): 1600 nM
GI50 (HOP-62 NSCLC): 2260 nM
TGI (HOP-62 NSCLC): 10600 nM
GI50 (SNB-75 CNS): 1090 nM
TGI (SNB-75 CNS): 9890 nM
GI50 (NCI-H522 lung): 827 nM
TGI (NCI-H522 lung): 1610 nM
GI50 (HCT-15 colon): 971 nM
TGI (HCT-15 colon): 2250 nM
GI50 (CCRF-CEM leukemia): 927 nM
TGI (CCRF-CEM leukemia): 3290 nM
GI50 (RPMI-8226 leukemia): 946 nM
TGI (RPMI-8226 leukemia): 2230 nM
GI50 (SK-MEL-2 melanoma): 1060 nM
TGI (SK-MEL-2 melanoma): 2150 nM
GI50 (HCC-2998 colon): 826 nM
TGI (HCC-2998 colon): 1550 nM
GI50 (IGROV1 ovarian): 5720 nM
TGI (IGROV1 ovarian): 15800 nM
GI50 (UACC-62 melanoma): 889 nM
TGI (UACC-62 melanoma): 1920 nM
GI50 (NCI/ADR-RES ovarian): 8470 nM
TGI (NCI/ADR-RES ovarian): 50000 nM
GI50 (ACHN renal): 736 nM
TGI (ACHN renal): 1400 nM
GI50 (K-562 leukemia): 1020 nM
TGI (K-562 leukemia): 2580 nM
GI50 (OVCAR-5 ovarian): 863 nM
TGI (OVCAR-5 ovarian): 1670 nM
GI50 (SN12C renal): 5130 nM
TGI (SN12C renal): 14000 nM
GI50 (SK-MEL-5 melanoma): 859 nM
TGI (SK-MEL-5 melanoma): 1570 nM
GI50 (MDA-MB-435): 836 nM
TGI (MDA-MB-435): 1610 nM
GI50 (EKVX NSCLC): 917 nM
TGI (EKVX NSCLC): 2010 nM
GI50 (OVCAR-4 ovarian): 844 nM
TGI (OVCAR-4 ovarian): 1610 nM
GI50 (HOP-92 NSCLC): 3620 nM
TGI (HOP-92 NSCLC): 11100 nM
GI50 (NCI-H460 lung): 545 nM
TGI (NCI-H460 lung): 1220 nM
GI50 (U251 CNS): 793 nM
TGI (U251 CNS): 1520 nM
GI50 (SK-OV-3 ovarian): 7590 nM
TGI (SK-OV-3 ovarian): 16400 nM
GI50 (HCT-116 colon): 742 nM
TGI (HCT-116 colon): 1470 nM
GI50 (A498 renal): 5310 nM
TGI (A498 renal): 12500 nM
GI50 (PC-3 prostate): 1180 nM
TGI (PC-3 prostate): 3110 nM
GI50 (HT29 colon): 881 nM
TGI (HT29 colon): 1920 nM
GI50 (LOX IMVI melanoma): 734 nM
TGI (LOX IMVI melanoma): 1450 nM
GI50 (NCI-H226 lung): 3530 nM
TGI (NCI-H226 lung): 15700 nM

O=C(O)CCC(NC(=O)c1ccc(Oc2nc3ccccc3nc2C(=O)O)cc1)C(=O)O (stereo unspecified)
TGI (UACC-257 melanoma): > 100000 nM
TGI (KM12 colon): > 100000 nM
TGI (SR leukemia): > 100000 nM
TGI (RXF 393 renal): > 100000 nM
TGI (NCI-H23 lung): > 100000 nM
TGI (OVCAR-8 ovarian): > 100000 nM
TGI (HS 578T breast): > 100000 nM
TGI (SNB-19 CNS): > 100000 nM
TGI (A549 NSCLC): > 100000 nM
TGI (HL-60(TB) leukemia): > 100000 nM
TGI (COLO 205 colon): > 100000 nM
TGI (BT-549 breast): > 100000 nM
TGI (MDA-MB-231 breast): > 100000 nM
TGI (DU-145 prostate): > 100000 nM
TGI (SK-MEL-28 melanoma): > 100000 nM
TGI (TK-10 renal): > 100000 nM
TGI (MOLT-4 leukemia): > 100000 nM
TGI (M14 melanoma): > 100000 nM
TGI (786-0 renal): > 100000 nM
TGI (MALME-3M melanoma): > 100000 nM
TGI (CAKI-1 renal): > 100000 nM
TGI (SW-620 colon): > 100000 nM
TGI (UO-31 renal): > 100000 nM
TGI (OVCAR-3 ovarian): > 100000 nM
TGI (SF-295 CNS): > 100000 nM
TGI (HOP-62 NSCLC): > 100000 nM
TGI (SF-268 CNS): > 100000 nM
TGI (T-47D breast): > 100000 nM
TGI (SNB-75 CNS): > 100000 nM
TGI (NCI-H522 lung): > 100000 nM
TGI (HCT-15 colon): > 100000 nM
TGI (CCRF-CEM leukemia): > 100000 nM
TGI (RPMI-8226 leukemia): > 100000 nM
TGI (SK-MEL-2 melanoma): > 100000 nM
TGI (HCC-2998 colon): > 100000 nM
TGI (IGROV1 ovarian): > 100000 nM
TGI (UACC-62 melanoma): > 100000 nM
TGI (NCI/ADR-RES ovarian): > 100000 nM
TGI (ACHN renal): > 100000 nM
TGI (K-562 leukemia): > 100000 nM
TGI (OVCAR-5 ovarian): > 100000 nM
TGI (SK-MEL-5 melanoma): > 100000 nM
TGI (MDA-MB-435): > 100000 nM
TGI (EKVX NSCLC): > 100000 nM
TGI (OVCAR-4 ovarian): > 100000 nM
TGI (HOP-92 NSCLC): > 100000 nM
TGI (NCI-H460 lung): > 100000 nM
TGI (U251 CNS): > 100000 nM
TGI (SK-OV-3 ovarian): > 100000 nM
TGI (HCT-116 colon): > 100000 nM
TGI (A498 renal): > 100000 nM
TGI (PC-3 prostate): > 100000 nM
TGI (HT29 colon): > 100000 nM
TGI (LOX IMVI melanoma): > 100000 nM
TGI (NCI-H226 lung): > 100000 nM
